In PubChem BioAssay (NCI) one finds GI50 and TGI data, which are given here for 9 compounds.

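Briefly, cells in 96-well plates were exposed to five compound concentrations for 48 h, and endpoints were estimated by linear interpolation. GI50 marks 50% less growth. TGI marks complete inhibition of growth.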

Some test systems named below: UACC-257 melanoma; SK-MEL-5 melanoma; K-562 leukemia; A549 NSCLC; SN12C renal; HL-60(TB) leukemia; SF-295 CNS; UACC-62 melanoma.
Common to all, as to test: growth of human tumour cells (NCI), 48 h

As for `CCSc1nc(SCC)c2c(-c3ccc(OC)c(OC)c3)c(C#N)c(SCC)nc2n1`, the GI50 was 39.4 µM in the assay on UACC-257 melanoma; 26.6 µM in the assay with SK-MEL-5 melanoma; 85.1 µM in the assay with K-562 leukemia; 30.4 µM in the assay with A549 NSCLC; 21.7 µM in the assay with SN12C renal; 81.1 µM in the assay with HL-60(TB) leukemia. The GI50 in the assay with SF-295 CNS is 12.9 µM; with UACC-62 melanoma it was 18.5 µM. In addition, the TGI in the assay on UACC-257 melanoma is greater than 100 µM; in the assay on SK-MEL-5 melanoma it was 78.8 µM; with K-562 leukemia, greater than 100 µM; in the assay on A549 NSCLC it was 79.1 µM; in the assay with SN12C renal it was 56.7 µM; in the assay with HL-60(TB) leukemia, greater than 100 µM. Also, the TGI in the assay on SF-295 CNS was determined as 39.9 µM; with UACC-62 melanoma, 43.4 µM.
On to `O=C1C(SCCO)=C(SCCO)C(=O)N1c1ccc(-c2ccccc2)cc1`, for which the GI50 is 3.32 µM with UACC-257 melanoma; 9.46 µM in the assay with SK-MEL-5 melanoma; greater than 50 µM with K-562 leukemia; 10.2 µM in the assay with A549 NSCLC; 5.47 µM in the assay on SN12C renal; 18.7 µM with HL-60(TB) leukemia. The GI50 is 20.7 µM in the assay on SF-295 CNS and 6.34 µM in the assay on UACC-62 melanoma. The TGI in the assay on UACC-257 melanoma is 7.62 µM; in the assay with SK-MEL-5 melanoma, 24.6 µM; in the assay on K-562 leukemia it was greater than 100 µM; with A549 NSCLC, 27 µM; in the assay on SN12C renal, 19.6 µM; in the assay with HL-60(TB) leukemia, 51.6 µM. In addition, the TGI in the assay with SF-295 CNS was found to be 46.1 µM; in the assay with UACC-62 melanoma it was 19 µM.
In the case of `CCC[CH2][Sn]1([CH2]CCC)[O]C2C(CO)OC(n3ccc(N)nc3=O)C2[O]1` (configuration not stated), the GI50 in the assay on UACC-257 melanoma was 1.28 µM; in the assay with SK-MEL-5 melanoma it was 1.61 µM; in the assay with K-562 leukemia, 0.297 µM; with A549 NSCLC, 2.38 µM; in the assay with SN12C renal, 1.45 µM; in the assay with SF-295 CNS, 1.93 µM. The GI50 in the assay on UACC-62 melanoma is 1.12 µM. The TGI was 2.61 µM in the assay on UACC-257 melanoma; 2.99 µM in the assay with SK-MEL-5 melanoma; greater than 100 µM with K-562 leukemia; 4.73 µM with A549 NSCLC; 2.83 µM in the assay with SN12C renal; 3.72 µM in the assay on SF-295 CNS. The TGI in the assay with UACC-62 melanoma was 2.41 µM.
As for `CC(C)(C)c1[nH]nc2c1C(c1cc3ccccc3[nH]c1=O)Nc1cc(C(=O)OCc3ccccc3)ccc1N2` (configuration not stated), the GI50 with UACC-257 melanoma is 2.71 µM; in the assay with K-562 leukemia, 4.18 µM; with A549 NSCLC, 3.33 µM; with SN12C renal it was 3.77 µM; in the assay on HL-60(TB) leukemia it was 3.66 µM; with SF-295 CNS, 3.17 µM. Further, in the assay on UACC-62 melanoma, the GI50 was 1.9 µM. The TGI with UACC-257 melanoma is greater than 100 µM; with K-562 leukemia, greater than 100 µM; in the assay on A549 NSCLC, greater than 100 µM; with SN12C renal it was greater than 100 µM; in the assay on HL-60(TB) leukemia, greater than 100 µM; in the assay on SF-295 CNS it was 38.5 µM. The compound further had a TGI in the assay with UACC-62 melanoma of 3.9 µM.
Turning to `Cn1cccc1-c1cc(-c2ccc(Br)cc2)[nH]c(=O)c1C#N`, the GI50 in the assay on UACC-257 melanoma, in the assay on SK-MEL-5 melanoma, in the assay with K-562 leukemia, in the assay on A549 NSCLC, in the assay on SN12C renal and in the assay on SF-295 CNS was greater than 100 µM in each case. The GI50 with UACC-62 melanoma was 49.2 µM. Besides, the TGI with UACC-257 melanoma, in the assay with SK-MEL-5 melanoma, with K-562 leukemia, in the assay on A549 NSCLC, in the assay with SN12C renal and in the assay on SF-295 CNS was greater than 100 µM each time. This compound also showed a TGI in the assay on UACC-62 melanoma greater than 100 µM.
Turning to `Nc1ncnc2c1c(-c1ccc(Oc3ccccc3)cc1)nn2C[C@@H]1SSC[C@H]1O`, the GI50 in the assay on UACC-257 melanoma is 1.44 µM; in the assay with SK-MEL-5 melanoma it was 0.874 µM; in the assay with K-562 leukemia, 0.501 µM; in the assay on A549 NSCLC, 1.86 µM; in the assay on SN12C renal, 2.31 µM; in the assay on HL-60(TB) leukemia, 1.84 µM. The GI50 was 2.7 µM in the assay on SF-295 CNS and 0.264 µM in the assay on UACC-62 melanoma. Besides, the TGI with UACC-257 melanoma was found to be 7.56 µM; in the assay with SK-MEL-5 melanoma it was 2.3 µM; in the assay on K-562 leukemia, 15.5 µM; with A549 NSCLC it was 4.69 µM; in the assay on SN12C renal it was 10.2 µM; in the assay with HL-60(TB) leukemia, 6.79 µM. Also, the TGI in the assay on SF-295 CNS turned out to be 9.25 µM; in the assay on UACC-62 melanoma, 0.882 µM.
For `CN(C)C(=O)c1cnc2oc3ccc(O)cc3c2c1-c1ccccc1`, the GI50 in the assay with UACC-257 melanoma was greater than 25 µM; in the assay with SK-MEL-5 melanoma, 6.75 µM; with K-562 leukemia, greater than 25 µM; in the assay on A549 NSCLC, greater than 25 µM; in the assay on HL-60(TB) leukemia, greater than 25 µM; with SF-295 CNS, greater than 25 µM. Moreover, the TGI with UACC-257 melanoma, in the assay with SK-MEL-5 melanoma, in the assay on K-562 leukemia, in the assay with A549 NSCLC, in the assay with HL-60(TB) leukemia and with SF-295 CNS was greater than 25 µM in each case.
Regarding `Cc1[nH]c2ccc(F)cc2c1-c1nc2c3cccnc3c3ncccc3c2[nH]1`, the GI50 in the assay with SK-MEL-5 melanoma is 0.19 µM; in the assay with K-562 leukemia, 0.353 µM; in the assay with A549 NSCLC, 0.701 µM; with SN12C renal it was 0.403 µM; with HL-60(TB) leukemia, 0.241 µM; with SF-295 CNS it was 0.428 µM. Further, the GI50 with UACC-62 melanoma is 0.231 µM. The TGI in the assay with SK-MEL-5 melanoma is 0.516 µM; in the assay on K-562 leukemia, greater than 100 µM; in the assay on A549 NSCLC, greater than 100 µM; with SN12C renal, greater than 100 µM; in the assay with SF-295 CNS, greater than 100 µM; in the assay with UACC-62 melanoma, 0.678 µM.
For the compound `COC(=O)C1=C(C)NC(C)=C(C(=O)OCC(C)C)C1c1ccccc1[N+](=O)[O-]` (configuration not stated), the GI50 is 3.71 µM in the assay on UACC-257 melanoma; 2.72 µM in the assay with SK-MEL-5 melanoma; 4.52 µM with A549 NSCLC; 4.15 µM in the assay with SN12C renal; 2.73 µM in the assay with HL-60(TB) leukemia; 2.28 µM with UACC-62 melanoma. The TGI was 12.5 µM with UACC-257 melanoma; 10.1 µM with SK-MEL-5 melanoma; 18.9 µM in the assay with A549 NSCLC; 19.8 µM in the assay with SN12C renal; 9.46 µM in the assay on HL-60(TB) leukemia; 11.2 µM with UACC-62 melanoma.
